# From patent US20250186452A1, “NOVEL USE OF QUINOLINE COMPOUND” (TARAPEUTICS SCIENCE INC., priority 2022, published 2025)
# Assays:
# [1] = tested on: RAW264.7 cells; test: Cell transformation experiment: IL-10 secretion of M2-induced RAW264.7 cells (ELISA); format: cell-based, mouse
# Method: (§1) RAW264.7 cells (purchased from ATCC, USA) were sucked up and down with a pipette, and the cells were added to a centrifuge tube, placed in a centrifuge, and centrifuged at 800 rpm for 4 minutes.
# [2] = tested on: M-NSF-60; test: Proliferation of M-NSF-60 cells with M-CSF (CCK-8, 72 hours); format: cell-based, mouse; conditions: Mus musculus; M-CSF 50 ng/ml in medium, 72 hours incubation, CCK-8; read-out: M-NSF-60 (GI50/μM)
# Method: (§2) The incubated cells were detected by CCK-8 (purchased from MedChem Express, China) cell viability detection kit (CCK-8 can be reduced by dehydrogenases in living cells to a highly water-soluble yellow formazan product, and the amount of the generated formazan product is proportional to the number of living cells). The number of living cells was quantified by a microplate reader, and the GI50 for each compound was calculated (the results are shown in Table 2).
# [3] = tested on: RAW264.7 cells; test: Cell transformation experiment: CD86 RNA level in M2-induced RAW264.7 cells (qPCR); format: cell-based, mouse
# Method: as §1
# In this experiment, an RNA extraction kit (purchased from Tiangen Biochemical Technology, China, catalog number: DP451) was used. RNA extraction was performed according to the instructions, and the concentration of RNA in the sample was detected using a NanoDrop nucleic acid concentration meter, and the RNA solution was diluted to the same concentration.
# In this experiment, TakaRa One Step TB Green® PrimeScript™ PLUS RT-PCR Kit (purchased from TaKaRa Bio, catalog number: RR096A) was used, which contained the following components:
# The procedure was as follows: • (1) The PCR primers were taken out and placed on ice. The primer sequences used were as follows: […]
# • (3) After the RT-PCR reaction reagents were prepared, they were mixed, and the mixture was dispensed into 8-Strip Tubes. 2 μL of RNA sample was added to the tube, the bottom of the tube was gently tapped to mix the solution, and the tube was centrifuged in a centrifuge for a while. • (4) The fluorescence quantitative PCR instrument was turned on. […] Roche analysis software LightCycler® 96 SW 1.1 was used to analyze the data, and the analyzed data was imported into Graphpad Prism7.0 for drawing.
# [4] = target: T1, TEL-CSF1R-BaF3 (Homo sapiens, UniProt P07333); test: Proliferation of TEL-CSF1R-BaF3 cells (CCK-8, 72 hours); format: cell-based; conditions: 72 hours incubation, CCK-8
# T1 construct: expressed in transfected cells; host or cells: mouse BaF3 cells (ATCC), retroviral transduction with MSCV-Puro vector, IL-3 withdrawn; the other entry of the earlier key: ETV6 (P41212, Transcription factor ETV6)
# T1 sequence (P07333 582-910 limits assumed): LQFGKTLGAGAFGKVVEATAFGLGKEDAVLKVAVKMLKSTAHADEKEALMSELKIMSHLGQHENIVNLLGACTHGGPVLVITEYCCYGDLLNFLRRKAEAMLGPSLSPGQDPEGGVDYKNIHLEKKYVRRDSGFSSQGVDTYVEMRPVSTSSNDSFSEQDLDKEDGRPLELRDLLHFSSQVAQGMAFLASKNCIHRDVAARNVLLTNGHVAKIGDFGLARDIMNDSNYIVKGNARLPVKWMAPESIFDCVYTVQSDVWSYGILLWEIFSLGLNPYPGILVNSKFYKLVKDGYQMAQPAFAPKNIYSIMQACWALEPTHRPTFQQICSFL
# Method: as §2
# The construction method of the TEL-CSF1R-BaF3 cell line (a cell line stably expressing CSF1R kinase) was as follows: the sequence of human CSF1R kinase region was amplified by PCR and inserted into the MSCV-Puro vector (Clontech) with an N-terminal TEL fragment, and stably transferred into mouse BaF3 cells (purchased from ATCC, USA) by a retroviral method, and IL-3 growth factor was removed, finally a cell line dependent on CSF1R transferred protein was obtained.
structure (smiles),measurement,setting,value
"COc1cc2nccc(Oc3ccc(NC(=O)Cc4ccc(Cl)c(C(F)(F)F)c4)cc3)c2cc1OC [Example 2, N-(4-((6,7-dimethoxyquinolin-4-yl)oxy)phenyl)-2-(4-chloro-3-(trifluoromethyl)phenyl)-acetamide]",effect on IL-10 secretion compared with positive controls,"[1]; 1 μM, same dose as PLX3397 and BLZ945, FIG. 1",better for Compound 2 at 1 μM than positive controls PLX3397 and BLZ945
same,level of IL-10 secretion in M2 macrophages,"[1]; RAW264.7 induced with IL-4 or IL-13, treated 72 hours, serial dilutions, FIG. 1",decreased in a dose-dependent manner
same,GI50,[2],0.03 µM
same,effect on CD86 RNA level compared with positive controls,"[3]; 1 μM, same dose as PLX3397 and BLZ945, FIG. 2",better for Compound 2 at 1 μM than positive controls PLX3397 and BLZ945
same,RNA level of CD86,"[3]; RAW264.7 induced to M2, treated 72 hours, serial dilutions, FIG. 2",increased in a dose-dependent manner
same,GI50,[4],0.003 µM
